According to the supplement of paper PMC10307832:

Experiments:
Assay in all cases: relative viability (nuclei count vs DMSO), 5 days (fraction); higher = more cells survive
AZD6482 + AZD7762 = compound: Cc1cc([C@@H](C)Nc2ccccc2C(=O)O)c2nc(N3CCOCC3)cc(=O)n2c1 [AZD6482] + NC(=O)Nc1cc(-c2cccc(F)c2)sc1C(=O)N[C@H]1CCCNC1 [AZD7762] (partner 0.2 µM)
Outline: (§1)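 One day after seeding in 1536-well plates, lung cancer cell lines were dosed by pin tool. Dosing was either single-drug or a fixed anchor-drug dose plus five library-drug doses (not always all listed) in √10 steps. After 5 days, nuclei were stained in one fix-and-stain step and counted on 4× images, and relative viability is the nuclei count of treated wells over that of vehicle wells, given as the median of duplicate plates.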

AZD6482 + Luminespib = compound: Cc1cc([C@@H](C)Nc2ccccc2C(=O)O)c2nc(N3CCOCC3)cc(=O)n2c1 [AZD6482] + CCNC(=O)c1noc(-c2cc(C(C)C)c(O)cc2O)c1-c1ccc(CN2CCOCC2)cc1 [Luminespib] (partner 0.01 µM)
Outline: as §1

[1] = compound: COc1cc2nc(N3CCCN(C)CC3)nc(NC3CCN(Cc4ccccc4)CC3)c2cc1OC + COc1cccc2cc(-c3nc([C@H]4CC[C@H](C(=O)O)CC4)n4ncnc(N)c34)[nH]c12 [OSI-027] (partner 0.5 µM)
Outline: as §1

AZD6482 + Lapatinib = compound: Cc1cc([C@@H](C)Nc2ccccc2C(=O)O)c2nc(N3CCOCC3)cc(=O)n2c1 [AZD6482] + CS(=O)(=O)CCNCc1ccc(-c2ccc3ncnc(Nc4ccc(OCc5cccc(F)c5)c(Cl)c4)c3c2)o1 [Lapatinib] (partner 2 µM)
Outline: as §1

Row | Cell Line | relative viability (AZD6482 + AZD7762; first compound 0.08 µM) | relative viability (AZD6482 + AZD7762; first compound 0.253 µM) | relative viability (AZD6482 + AZD7762; first compound 0.8 µM) | relative viability (AZD6482 + AZD7762; first compound 2.53 µM) | relative viability (AZD6482 + AZD7762; first compound 8 µM) | relative viability (AZD6482 + Luminespib; first compound 0.08 µM) | relative viability (AZD6482 + Luminespib; first compound 0.253 µM) | relative viability (AZD6482 + Luminespib; first compound 0.8 µM) | relative viability (AZD6482 + Luminespib; first compound 2.53 µM) | relative viability (AZD6482 + Luminespib; first compound 8 µM) | relative viability ([1]; first compound 0.2 µM) | relative viability ([1]; first compound 0.6325 µM) | relative viability ([1]; first compound 2 µM) | relative viability ([1]; first compound 6.325 µM) | relative viability (AZD6482 + Lapatinib; first compound 0.08 µM) | relative viability (AZD6482 + Lapatinib; first compound 0.253 µM) | relative viability (AZD6482 + Lapatinib; first compound 0.8 µM) | relative viability (AZD6482 + Lapatinib; first compound 2.53 µM) | relative viability (AZD6482 + Lapatinib; first compound 8 µM)
1 | 201T | 0.739 | 0.669 | 0.615 | 0.611 | 0.565 | 0.995 | 0.982 | 1.01 | 0.847 | 1.02 | 0.706 | 0.811 | 0.73 | 0.601 | 1.02 | 1.04 | 1.17 | 0.843 | 0.993
2 | A-427 | 0.645 | 0.804 | 0.684 | 0.451 | 0.627 | 0.974 | 0.79 | 0.986 |  | 0.677 | 0.487 | 0.55 | 0.442 | 0.386 | 0.97 | 0.869 | 1.08 | 0.777 | 1.1
3 | ABC-1 | 0.825 | 0.892 | 0.695 | 0.772 | 0.638 | 0.668 | 0.521 | 0.438 | 0.55 | 0.461 | 0.479 | 0.583 | 0.444 | 0.336 | 1.07 | 1.16 | 1.07 | 1.03 | 0.932
4 | BEN | 0.664 | 0.68 | 0.779 | 0.457 | 0.646 | 0.399 | 0.193 | 0.522 | 0.177 | 0.334 | 0.317 | 0.28 | 0.288 | 0.244 | 0.732 | 0.722 | 0.671 | 0.553 | 0.687
5 | CAL-12T | 0.686 | 0.647 | 0.677 | 0.468 | 0.665 | 0.476 | 0.204 | 0.338 | 0.171 | 0.325 | 0.516 | 0.718 | 0.76 | 0.479 | 0.601 |  | 0.529 | 0.272 | 0.578
6 | EKVX | 0.564 | 0.666 | 0.538 | 0.478 | 0.494 | 0.778 | 0.748 | 0.74 | 0.625 | 0.557 | 0.755 | 0.662 | 0.736 | 0.666 | 0.173 | 0.342 | 0.181 | 0.141 | 0.167
7 | EMC-BAC-2 | 1.03 | 0.958 | 1.02 | 0.818 | 0.679 | 1.01 | 1.05 | 1.18 | 0.805 | 0.787 | 0.361 | 0.353 | 0.39 | 0.397 | 0.852 | 0.869 | 0.886 | 0.695 | 0.828
8 | EPLC-272H | 0.531 | 0.151 | 0.298 | 0.197 | 0.207 | 0.347 | 0.164 | 0.21 | 0.179 | 0.256 | 0.358 | 0.32 | 0.316 | 0.205 | 0.812 |  | 1.01 | 0.709 | 0.673
9 | H3255 | 0.895 | 0.83 | 0.984 | 0.697 | 0.692 | 0.986 | 0.761 | 0.806 | 0.529 | 0.799 | 0.513 | 0.534 | 0.587 | 0.692 | 0.194 | 0.221 | 0.263 | 0.182 | 0.152
